# Data as given in patent US11485701B2, “Insect repellent compounds and compositions, and methods thereof” (Iowa State University Research Foundation, Inc., priority 2016, dated 2022).
# Tests used:
# Type in all cases: in vivo
# [1] = system: female Aedes aegypti (Orlando strain, 1952); assay: Minimum effective dosage testing, human skin (treated cloth patch); settings: for Proportion to DEET: average MED relative to DEET; for Minimum Effective Dosage, Average: mean across subjects; for Minimum Effective Dosage, Subject 1 / Minimum Effective Dosage, Subject 2 / Minimum Effective Dosage, Subject 3: treated cloth patch, 1 min test, high dose 1.5 mg/cm^2
# Experimental: The test mosquitoes were female Aedes aegypti (Orlando strain, 1952) from the colony maintained at United States Department of Agriculture-Agricultural Research Service-Center for Medical, Agricultural and Veterinary Entomology (USDA-ARS-CMAVE) in Gainesville, Fla. Pupae were obtained from the colony and newly emerged mosquitoes were maintained on 10% sugar water and kept in laboratory cages at an ambient temperature of 28±1° C. and RH of 35-60%. Host seeking behavior was pre-selected in nulliparous female mosquitoes aged 6-10 days, indicated by flight upwind towards a potential host, from stock cages using a hand-draw box and trapped in a collection trap.
# After 500 (±10%) females were collected in the trap, they were transferred to a test cage (approximately 59,000 cm^3 with dimensions 45×37.5×35 cm) and allowed to acclimatize for 17.5 (±2.5) min before testing was initiated. Just prior to the experiment, the pieces of treated cloth are removed from the vials and stapled onto card stock tabs (5×3 cm). Each piece of the cards and the assembly were hung on a drying rack using masking tape for 3-5 min. Participants in the study used latex gloves to pull a nylon stocking over their arm. A Velcro™-sealed vinyl sleeve was then placed over the forearm. […] The purpose of the nylon stocking was to produce a barrier between the dried cloth and the skin, thereby avoiding direct contact of chemical to skin. The dried cloth assembly was affixed over the opening in the sleeve and held in place with masking tape. Participants then inserted their arm with the sleeve and patch into a screened cage that contained female Ae. Aegypti mosquitoes. Tests were conducted on each control or treated patch for 1 min. A control patch (acetone solvent only, then dried) was tested prior to the start of experiments and evaluation of the same untreated control patch after every 10 tests. If 5 landings were not received on the control patch in 30 s, then tests were discontinued for 60 min. At the conclusion of testing the control patch was tested again. If five landings were not received within 30 s, the data for the replicate was discarded. When testing a patch treated with a candidate repellent, if approximately 1% or 5 mosquito bites were received during this one minute test, this compound was considered to have failed, i.e., was not repellent at that concentration. If a treated cloth patch received 0-4 bites within a minute, then it was considered as passed, i.e., repellent at that concentration of the test compound. The median concentration patch was tested in the first round and treated patches were then tested successively at higher or lower concentrations depending upon whether the previous patch failed or passed, respectively.
# The time interval between each tested patch was <90 seconds until 10 successive tests had been conducted. If appreciable, mortality had occurred during testing, the number of knocked down mosquitoes are estimated and additional female mosquitoes are added to the cage to keep the available mosquitoes at approximately 500. The estimate of the MED was the lowest concentration that passed for each candidate. Observed MED values for each candidate compound were averaged across participants and reported as a mean MED±standard error.
# [2] = system: Northern house mosquitoes (Culex pipiens); assay: Short-term spatial repellency, static air repellency chamber; settings: for pest or weed control at 0.5 %: Culex pipiens
# Experimental: (§1) Northern house mosquitoes (Culex pipiens), a primary carrier of West Nile virus in eastern North America, were obtained from an established colony in the Medical Entomology Laboratory in the Department of Entomology at Iowa State University of Science and Technology, Ames Iowa. Mosquito rearing was performed by established protocols that are maintained by the Medical Entomology Laboratory. Repellency bioassays were performed with adult female mosquitoes that emerged 5-7 days previously. […] Mosquitoes, prior to testing, were held at 27° C., 80% relative humidity, and on a 16:8 hr light:dark photoperiod.
# Repellency bioassays were performed using a static air repellency chamber, which has been described in various publications by the Pesticide Toxicology Laboratory at Iowa State University of Science and Technology, Ames, Iowa Briefly, a 9-cm×60-cm glass tube was used to monitor the distribution of mosquitoes at 15 min, 30 min, 60 min, 90 min, 120 min, and 150 min after introducing mosquitoes into the static air repellency chamber. […] One end of the spatial chamber contained a treated filter paper, whereas the other (untreated) end of the spatial chamber was not treated with compound. Controls contained filter papers treated with acetone, the solvent used to make the 0.5% solutions. Each end of the repellency chamber was secured with a 100-mm Petri dish using celluloid tape. After securing the petri dishes with corresponding treated or untreated filter papers to the spatial chamber, mosquitoes were anesthetized with carbon dioxide, and approximately 20 female mosquitoes were placed into each repellency chamber for one replicate. The opening of the spatial repellency chamber was secured with celluloid tape to prevent their escape. Chambers were oriented in opposite directions from the previous replicate to account for any directional effect. Four replicates were performed for data analysis for both the control and treatment groups.
# (§2) Data for spatial repellency, the percentage repellency, is reported at each of the respective time points in the figures and tables mentioned below. The percentage spatial repellency is the examination of the distribution of mosquitoes and is calculated using the following equation: […]
# [3] = system: Northern house mosquitoes (Culex pipiens); assay: Long-term spatial repellency, static air repellency chamber, filter papers air-dried 5 hours; settings: for pest or weed control at 0.5 %: Culex pipiens
# Experimental: as §1, with “were” for “emerged”, “post-emergent.” for “previously.”
# Repellency bioassays were performed using a static air repellency chamber, which has been described in various publications by the Pesticide Toxicology Laboratory at Iowa State University of Science and Technology, Ames, Iowa Briefly, a 9-cm×60-cm glass tube was used to monitor the distribution of mosquitoes at 15 min, 30 min, 60 min, 90 min, 120 min, and 150 min after introducing mosquitoes into the static air repellency chamber. Treated filter papers were treated with 1 mL of 0.5% solution in acetone of the terpenoid analogs created in the lab and were exposed to ambient air for 5 hours before they were introduced into the spatial chamber for testing. This is a slight modification of the method described in Example 2, so as to evaluate the residual repellent character of these compounds on a treated surface after 5 hours. One end of the spatial chamber contained a treated filter paper, whereas the other (untreated) end of the spatial chamber was not treated with compound. Controls contained filter papers treated with acetone, the solvent used to make the 0.5% solutions. Each end of the repellency chamber was secured with a 100-mm Petri dish using celluloid tape. After securing the petri dishes with corresponding treated or untreated filter papers to the spatial chamber, mosquitoes were anesthetized with carbon dioxide, and approximately 20 female mosquitoes were placed into each repellency chamber for one replicate. The opening of the spatial repellency chamber was secured with celluloid tape to prevent their escape. Chambers were oriented in opposite directions from the previous replicate to account for any directional effect. Four replicates were performed for data analysis for both the control and treatment groups.
# as §2, with “below in this disclosure.” for “below.”
# [4] = 1 mL of 0.5% solution in acetone
# [5] = 0.25 h, filter paper, 1 mL of 0.5% solution in acetone, air-dried 15 min, 15 min after introduction, read-out: Short-term Percentage repellency 15 min
# [6] = 1.5 h, filter paper, 1 mL of 0.5% solution in acetone, air-dried 15 min, 90 min, read-out: Short-term Percentage repellency 90 min
# [7] = 2.5 h, filter paper, 1 mL of 0.5% solution in acetone, air-dried 15 min, 150 min, read-out: Short-term Percentage repellency 150 min
# [8] = 0.25 h, 1 mL of 0.5% solution in acetone, air-dried 5 hours, 15 min, read-out: Long-term Percentage repellency 15 min
# [9] = 1.5 h, 1 mL of 0.5% solution in acetone, air-dried 5 hours, 90 min, read-out: Long-term Percentage repellency 90 min
# [10] = 2.5 h, 1 mL of 0.5% solution in acetone, air-dried 5 hours, 150 min, read-out: Long-term Percentage repellency 150 min
SMILES,Proportion to DEET [1],"Minimum Effective Dosage, Average [1] [mg/cm^2]","Minimum Effective Dosage, Subject 1 [1] [mg/cm^2]","Minimum Effective Dosage, Subject 2 [1] [mg/cm^2]","Minimum Effective Dosage, Subject 3 [1] [mg/cm^2]","pest or weed control at 0.5 % [2, 5] [%]","pest or weed control at 0.5 % [2, 6] [%]","pest or weed control at 0.5 % [2, 7] [%]","pest or weed control at 0.5 % [3, 8] [%]","pest or weed control at 0.5 % [3, 9] [%]","pest or weed control at 0.5 % [3, 10] [%]",other results
CC(C)=CCCC(C)CC(=O)OCCCO (centres unmarked) [3-hydroxypropyl citronellate],3.702,0.070,0.094,0.094,0.023,–,–,–,–,–,–,–
CC(C)=CCC/C(C)=C/C(=O)OCCCO [3-hydroxypropyl geranate],6.579,0.125,0.187,0.094,0.094,–,–,–,–,–,–,–
CC(C)=CCC/C(C)=C/C(=O)OCC(C)O (centres unmarked) [2-hydroxypropyl geranate],2.474,0.047,0.047,0.047,0.047,–,–,–,–,–,–,–
O=C(C=Cc1ccccc1)OCCCO [3-hydroxypropyl cinnamate],52.632,1.000,0.750,1.500,0.750,–,–,–,–,–,–,–
CC(O)COC(=O)C=Cc1ccccc1 (centres unmarked) [2-hydroxypropyl cinnamate],19.737,0.375,–,0.375,0.375,–,–,–,–,–,–,–
"CCN(CC)C(=O)c1cccc(C)c1 [DEET, N,N-diethyl-meta-toluaminde, reference compound]",1.000,0.019,0.023,0.023,0.011,–,–,–,–,–,–,"Short-term percentage repellency 30 min [2, 4]: 53.3%; Short-term Percentage repellency 15 min ([2]; filter paper, 1 mL of 0.5% solution in acetone, air-dried 15 min, 15 min after introduction): 20%±15.3; Long-term percentage repellency 30 min ([3]; 0.5% solution, air-dried 5 hours, 30 minutes): 22.5%; Long-term Percentage repellency 15 min ([3]; 1 mL of 0.5% solution in acetone, air-dried 5 hours, 15 min): 32.5%±14.4"
"Cc1ccc(C(C)C)c(OC(=O)C2CC2)c1 [Compound 1055A, thymol cyclopropanecarboxylate]",–,–,–,–,–,-10,87.5,95,0,32.5,52.5,"Short-term spatial repellency, in words [2, 4]: very effective spatial repellent; Short-term percentage repellency 30 min [2, 4]: 58%"
"CC(C)=CCCC(C)CCOC(=O)C(F)F (centres unmarked) [Compound 2192, citronellyl difluoroacetate]",–,–,–,–,–,–,–,–,–,–,–,"pest or weed control at 0.5 % ([2]; 0.25 h, read-out: Short-term Percentage repellency 15 min): 42.5%; pest or weed control at 0.5 % ([2]; 1.5 h, read-out: Short-term Percentage repellency 90 min): 95%; pest or weed control at 0.5 % ([2]; 2.5 h, read-out: Short-term Percentage repellency 150 min): 95%; pest or weed control at 0.5 % ([3]; 0.25 h, read-out: Long-term Percentage repellency 15 min): 50%; pest or weed control at 0.5 % ([3]; 1.5 h, read-out: Long-term Percentage repellency 90 min): 72.5%; pest or weed control at 0.5 % ([3]; 2.5 h, read-out: Long-term Percentage repellency 150 min): 65%"
O=C(C=Cc1ccccc1)OCCO [2-hydroxyethyl cinnamate],–,–,–,–,0.094,–,–,–,–,–,–,–
"CC(C)=CCCC(C)CCO (centres unmarked) [citronellol, reference compound]",–,–,–,–,–,32.5,80,87.5,30,25,25,–
CC(C)=CCC/C(C)=C/C(=O)OCCO [2-hydroxyethyl geranate],13.140,0.250,0.187,0.375,0.187,–,–,–,–,–,–,–
"CC(C)=CCC/C(C)=C\COC(=O)C1CC1 [Compound 2023B, neryl cyclopropanecarboxylate]",–,–,–,–,–,10,52.5,60,10,52.5,60,–
"CC(=O)CCC(=O)OCCC(C)CCC=C(C)C (centres unmarked) [Compound 2183, citronellyl levulinate]",–,–,–,–,–,35,45,55,35,45,55,–
"CC(C)=CCCC(C)CCOC(=O)C1CC(C)C1 (centres unmarked) [Compound 3068, citronellyl 3-methylcyclobutanecarboxylate]",–,–,–,–,–,22.5,32.5,42.5,22.5,32.5,42.5,–
